Measured values from patent publication US20230131899A1, “INHIBITORS OF MICROBIALLY INDUCED AMYLOID” (Axial Therapeutics, Inc., priority 2020, published 2023).
Like-named read-outs stand apart in the source and are kept apart here.

Tests used:
E. coli CsgA = target: T1, E. coli CsgA (Escherichia coli, UniProt P28307); assay: In vitro ThioflavinT assay of CsgA aggregation (CsgA ThT Assay); assay type: biochemical; details: CsgA 2 μM, white plates; for remaining activity at 25 µM: compound 25 μM; for remaining activity at 100 µM: compound 100 μM
T1 construct: made in house; host or cells: E. coli NEB 3016 slyD::kan, pET11d
Method in brief: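 Purified C-terminal His-tagged CsgA, monomerised by desalting and 30-kDa filtration, at 2-20 μM with 20-40 μM ThT in 50 mM potassium phosphate pH 7.3, 1% DMSO, compounds 3.125-200 uM; room temperature, fluorescence (ex 438/em 495 nm) read every 15 min. Background-subtracted signal expressed as percent inhibition versus vehicle at 6-6.5 or 8-9 h, or as percent control AUC.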

[1] = tested on: CsgA gene expression (csgBAC promoter-GFP reporter) in E. coli UTI89; assay: In vitro live cell fluorescent reporter assay of CsgA transcription (Reporter Assay); assay type: cell-based; details: Escherichia coli
Method in brief: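 Compounds at 0.14–100 μM (1% DMSO final) incubated 20 h at 27 °C in YESCA broth with UTI89 carrying a single-copy GFP reporter under the csgBAC intergenic promoter region, inoculum OD600 0.003. Fluorescence normalized to vehicle wells gave IC50 and 50%-of-vehicle concentration; OD600 reduction >10% flagged growth impact.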

[2] = read-out: CsgA ThT Assay (2 μM CsgA) % Control Bmax 25 μM, activity range, class symbol
[3] = read-out: CsgA ThT Assay (2 μM CsgA) % Control Bmax 25 μM, mean Bmax as percentage of DMSO control
[4] = read-out: CsgA ThT Assay (2 μM CsgA) % Control Bmax 100 μM, activity range, class symbol
[5] = read-out: CsgA ThT Assay (2 μM CsgA) % Control Bmax 100 μM, mean Bmax as percentage of DMSO control
[6] = read-out: Reporter Assay Abs IC50 (μM), median Abs IC50 in the CsgA reporter assay, N/A = maximum expression reduction is <50% of control
[7] = read-out: Reporter Assay Abs IC50, activity range, class symbol

T1 sequence (P28307 23-151): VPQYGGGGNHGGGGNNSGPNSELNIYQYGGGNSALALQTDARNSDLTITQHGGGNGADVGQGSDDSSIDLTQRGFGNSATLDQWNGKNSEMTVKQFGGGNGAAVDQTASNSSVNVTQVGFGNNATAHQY

In the case of O=C(O)C1CNc2c(-c3cccc(C(F)(F)F)c3)c(C(F)(F)c3cccc4ccccc34)cc(=O)n21 (stereo not shown) [Compound 134, 7-(difluoro(naphthalen-1-yl)methyl)-5-oxo-8-(3-(trifluoromethyl)phenyl)-1,2,3,5-tetrahydroimidazo[1,2-a]pyridine-3-carboxylic acid], the remaining activity at 25 µM (E. coli CsgA; [2]) is reported as over 60%, the remaining activity at 25 µM (E. coli CsgA; [3]) is reported as 92% and the remaining activity at 100 µM (E. coli CsgA; [4]) is reported as over 60%. It also gave a remaining activity at 100 µM (E. coli CsgA; [5]) of 66%, an IC50 [1, 6] of 15.6 µM and an IC50 [1, 7] of over 10 µM.

Compound CN1CC(C(=O)O)n2c1c(-c1cccc(C(F)(F)F)c1)c(C(F)(F)c1cccc3ccccc13)cc2=O (stereo not shown) [Compound 135, 7-(difluoro(naphthalen-1-yl)methyl)-1-methyl-5-oxo-8-(3-(trifluoromethyl)phenyl)-1,2,3,5-tetrahydroimidazo[1,2-a]pyridine-3-carboxylic acid] has a remaining activity at 25 µM (E. coli CsgA; [2]) of over 60%, a remaining activity at 25 µM (E. coli CsgA; [3]) of 88% and a remaining activity at 100 µM (E. coli CsgA; [4]) of over 60%. For the same compound, the remaining activity at 100 µM (E. coli CsgA; [5]) was 67%, the IC50 [1, 6] was 4 µM and the IC50 [1, 7] was 1.3 to 4.5 µM.

CCc1c(Cc2cccc3ccccc23)c(-c2cccc(C(F)(F)F)c2)c2n(c1=O)C(C(=O)O)CN2C (stereo not shown) [Compound 136, 6-ethyl-1-methyl-7-(naphthalen-1-ylmethyl)-5-oxo-8-(3-(trifluoromethyl)phenyl)-1,2,3,5-tetrahydroimidazo[1,2-a]pyridine-3-carboxylic acid] showed a remaining activity at 25 µM (E. coli CsgA; [2]) of over 60%, a remaining activity at 25 µM (E. coli CsgA; [3]) of 77% and a remaining activity at 100 µM (E. coli CsgA; [4]) of 11 to 31%. The remaining activity at 100 µM (E. coli CsgA; [5]) was 27%, the IC50 [1, 6] was 3.5 µM and the IC50 [1, 7] was 1.3 to 4.5 µM.

Work on O=C(O)C1CNS(=O)(=O)c2c(-c3cccc(C(F)(F)F)c3)c(C(F)(F)c3cccc4ccccc34)cc(=O)n21 (stereo not shown) [Compound 137, 8-(difluoro(naphthalen-1-yl)methyl)-6-oxo-9-(3-(trifluoromethyl)phenyl)-3,4-dihydro-2H,6H-pyrido[1,2-e][1,2,5]thiadiazine-4-carboxylic acid 1,1-dioxide] yielded a remaining activity at 25 µM (E. coli CsgA; [2]) of over 60%, a remaining activity at 25 µM (E. coli CsgA; [3]) of 81% and a remaining activity at 100 µM (E. coli CsgA; [4]) of 31 to 60%. It also gave a remaining activity at 100 µM (E. coli CsgA; [5]) of 50%, an IC50 [1, 6] of 2.2 µM and an IC50 [1, 7] of 1.3 to 4.5 µM.

CCCN1CC(C(=O)O)n2c(c(-c3cccc(C(F)(F)F)c3)c(Cc3cccc4ccccc34)c(CC(C)C)c2=O)S1(=O)=O (stereo not shown) [Compound 139, 7-isobutyl-8-(naphthalen-1-ylmethyl)-6-oxo-2-propyl-9-(3-(trifluoromethyl)phenyl)-3,4-dihydro-2H,6H-pyrido[1,2-e][1,2,5]thiadiazine-4-carboxylic acid 1,1-dioxide] showed a remaining activity at 25 µM (E. coli CsgA; [2]) of 31 to 60%, a remaining activity at 25 µM (E. coli CsgA; [3]) of 51% and a remaining activity at 100 µM (E. coli CsgA; [4]) of 31 to 60%. The remaining activity at 100 µM (E. coli CsgA; [5]) was 35%, the IC50 [1, 6] was 2.5 µM and the IC50 [1, 7] was 1.3 to 4.5 µM.

CC(C)CN1CC(C(=O)O)n2c(c(-c3cccc(C(F)(F)F)c3)c(Cc3cccc4ccccc34)c(NC3CCCC3)c2=O)S1(=O)=O (stereo not shown) [Compound 145, 7-(cyclopentylamino)-2-isobutyl-8-(naphthalen-1-ylmethyl)-6-oxo-9-(3-(trifluoromethyl)phenyl)-3,4-dihydro-2H,6H-pyrido[1,2-e][1,2,5]thiadiazine-4-carboxylic acid 1,1-dioxide] gave a remaining activity at 25 µM (E. coli CsgA; [2]) of over 60%, a remaining activity at 25 µM (E. coli CsgA; [3]) of 76% and a remaining activity at 100 µM (E. coli CsgA; [4]) of 31 to 60%. For the same compound, the remaining activity at 100 µM (E. coli CsgA; [5]) was 39%, the IC50 [1, 6] was 2 µM and the IC50 [1, 7] was 1.3 to 4.5 µM.

O=C(O)C1CN(C2CCCC2)S(=O)(=O)c2c(-c3cccc(C(F)(F)F)c3)c(Cc3cccc4ccccc34)c(NC3CCCC3)c(=O)n21 (stereo not shown) [Compound 150, 2-cyclopentyl-7-(cyclopentylamino)-8-(naphthalen-1-ylmethyl)-6-oxo-9-(3-(trifluoromethyl)phenyl)-3,4-dihydro-2H,6H-pyrido[1,2-e][1,2,5]thiadiazine-4-carboxylic acid 1,1-dioxide] gave a remaining activity at 25 µM (E. coli CsgA; [2]) of over 60%, a remaining activity at 25 µM (E. coli CsgA; [3]) of 78% and a remaining activity at 100 µM (E. coli CsgA; [4]) of over 60%. For the same compound, the remaining activity at 100 µM (E. coli CsgA; [5]) was 199%, the IC50 [1, 6] was 4.2 µM and the IC50 [1, 7] was 1.3 to 4.5 µM.

In the case of O=C(O)C1CN(Cc2ccccn2)c2c(-c3cccc(C(F)(F)F)c3)c(Cc3cccc4ccccc34)c(Cl)c(=O)n21 (stereo not shown) [Compound 166, 6-chloro-7-(naphthalen-1-ylmethyl)-5-oxo-1-(pyridin-2-ylmethyl)-8-(3-(trifluoromethyl)phenyl)-1,2,3,5-tetrahydroimidazo[1,2-a]pyridine-3-carboxylic acid], the remaining activity at 25 µM (E. coli CsgA; [2]) is reported as over 60%, the remaining activity at 25 µM (E. coli CsgA; [3]) is reported as 72% and the remaining activity at 100 µM (E. coli CsgA; [4]) is reported as 31 to 60%. For the same compound, the remaining activity at 100 µM (E. coli CsgA; [5]) was 40%, the IC50 [1, 6] was 2.5 µM and the IC50 [1, 7] was 1.3 to 4.5 µM.

With NC(=O)c1c(Cc2cccc3ccccc23)c(-c2cccc(C(F)(F)F)c2)c2n(c1=O)C(C(=O)O)CN(CCCCO)S2(=O)=O (stereo not shown) [Compound 183, 7-carbamoyl-2-(4-hydroxybutyl)-8-(naphthalen-1-ylmethyl)-6-oxo-9-(3-(trifluoromethyl)phenyl)-3,4-dihydro-2H,6H-pyrido[1,2-e][1,2,5]thiadiazine-4-carboxylic acid 1,1-dioxide] the remaining activity at 25 µM (E. coli CsgA; [2]) was 31 to 60%, the remaining activity at 25 µM (E. coli CsgA; [3]) was 32% and the remaining activity at 100 µM (E. coli CsgA; [4]) was 11 to 31%. The remaining activity at 100 µM (E. coli CsgA; [5]) was 26%, the IC50 [1, 6] was 0.8 µM and the IC50 [1, 7] was under 1.3 µM.

For N#Cc1c(Cc2cccc3ccccc23)c(-c2cccc(C(F)(F)F)c2)c2n(c1=O)C(C(=O)O)CN2Cc1ccccc1 (stereo not shown) [Compound 185, 1-benzyl-6-cyano-7-(naphthalen-1-ylmethyl)-5-oxo-8-(3-(trifluoromethyl)phenyl)-1,2,3,5-tetrahydroimidazo[1,2-a]pyridine-3-carboxylic acid], the remaining activity at 25 µM (E. coli CsgA; [2]) was over 60%, the remaining activity at 25 µM (E. coli CsgA; [3]) was 69% and the remaining activity at 100 µM (E. coli CsgA; [4]) was over 60%. For the same compound, the remaining activity at 100 µM (E. coli CsgA; [5]) was 91%, the IC50 [1, 6] was 1.8 µM and the IC50 [1, 7] was 1.3 to 4.5 µM.

Compound CN1CC(C(=O)O)n2c(c(-c3cccc(C(F)(F)F)c3)c(Cc3cccc4ccccc34)c(C(=O)N3CCCC3)c2=O)S1(=O)=O (stereo not shown) [Compound 186, 2-methyl-8-(naphthalen-1-ylmethyl)-6-oxo-7-(pyrrolidine-1-carbonyl)-9-(3-(trifluoromethyl)phenyl)-3,4-dihydro-2H,6H-pyrido[1,2-e] [1,2,5] thiadiazine-4-carboxylic acid 1,1-dioxide] has a remaining activity at 25 µM (E. coli CsgA; [2]) of over 60%, a remaining activity at 25 µM (E. coli CsgA; [3]) of 117% and a remaining activity at 100 µM (E. coli CsgA; [4]) of over 60%. It also gave a remaining activity at 100 µM (E. coli CsgA; [5]) of 72%, an IC50 [1, 6] of 4.7 µM and an IC50 [1, 7] of 4.6 to 10 µM.

With O=C(O)C1CN(Cc2ccccc2)c2c(-c3ccc(Br)cc3)c(Cc3cccc4ccccc34)c(Cl)c(=O)n21 (stereo not shown) [Compound 201, 1-benzyl-8-(4-bromophenyl)-6-chloro-7-(naphthalen-1-ylmethyl)-5-oxo-1,2,3,5-tetrahydroimidazo[1,2-a]pyridine-3-carboxylic acid] the remaining activity at 25 µM (E. coli CsgA; [2]) was over 60%, the remaining activity at 25 µM (E. coli CsgA; [3]) was 70% and the remaining activity at 100 µM (E. coli CsgA; [4]) was 31 to 60%. The remaining activity at 100 µM (E. coli CsgA; [5]) was 35%, the IC50 [1, 6] was 1.8 µM and the IC50 [1, 7] was 1.3 to 4.5 µM.

NC(=O)c1c(Cc2cccc3ccccc23)c(-c2cccc(C(F)(F)F)c2)c2n(c1=O)C(C(=O)O)CN2Cc1ccccc1 (stereo not shown) [Compound 203, 1-benzyl-6-carbamoyl-7-(naphthalen-1-ylmethyl)-5-oxo-8-(3-(trifluoromethyl)phenyl)-1,2,3,5-tetrahydroimidazo[1,2-a]pyridine-3-carboxylic acid] gave a remaining activity at 25 µM (E. coli CsgA; [2]) of over 60%, a remaining activity at 25 µM (E. coli CsgA; [3]) of 62% and a remaining activity at 100 µM (E. coli CsgA; [4]) of over 60%. For the same compound, the remaining activity at 100 µM (E. coli CsgA; [5]) was 64%, the IC50 [1, 6] was 1.1 µM and the IC50 [1, 7] was under 1.3 µM.

CN(C)Cc1c(Cc2cccc3ccccc23)c(-c2cccc(C(F)(F)F)c2)c2n(c1=O)C(C(=O)O)CN2Cc1ccccc1 (stereo not shown) [Compound 204, 1-benzyl-6-((dimethylamino)methyl)-7-(naphthalen-1-ylmethyl)-5-oxo-8-(3-(trifluoromethyl)phenyl)-1,2,3,5-tetrahydroimidazo[1,2-a]pyridine-3-carboxylic acid] gave a remaining activity at 100 µM (E. coli CsgA; [4]) of over 60%, a remaining activity at 100 µM (E. coli CsgA; [5]) of 71% and an IC50 [1, 6] of 1.9 µM. It also gave an IC50 [1, 7] of 1.3 to 4.5 µM.

O=C(O)C1CN(Cc2ccccc2)c2c(-c3cccc(C(F)(F)F)c3)c(Cc3cccc4ccncc34)c(Cl)c(=O)n21 (stereo not shown) [Compound 205, 1-benzyl-6-chloro-7-(isoquinolin-8-ylmethyl)-5-oxo-8-(3-(trifluoromethyl)phenyl)-1,2,3,5-tetrahydroimidazo[1,2-a]pyridine-3-carboxylic acid] showed a remaining activity at 25 µM (E. coli CsgA; [2]) of over 60%, a remaining activity at 25 µM (E. coli CsgA; [3]) of 69% and a remaining activity at 100 µM (E. coli CsgA; [4]) of 31 to 60%. It also gave a remaining activity at 100 µM (E. coli CsgA; [5]) of 44%, an IC50 [1, 6] of 22.4 µM and an IC50 [1, 7] of over 10 µM.

O=C(O)C1CN(Cc2ccccc2)c2c(-c3cccc(C(F)(F)F)c3)c(Cc3ccnc4ccccc34)c(Cl)c(=O)n21 (stereo not shown) [Compound 206, 1-benzyl-6-chloro-5-oxo-7-(quinolin-4-ylmethyl)-8-(3-(trifluoromethyl)phenyl)-1,2,3,5-tetrahydroimidazo[1,2-a]pyridine-3-carboxylic acid] showed a remaining activity at 25 µM (E. coli CsgA; [2]) of over 60%, a remaining activity at 25 µM (E. coli CsgA; [3]) of 64% and a remaining activity at 100 µM (E. coli CsgA; [4]) of 31 to 60%. It also gave a remaining activity at 100 µM (E. coli CsgA; [5]) of 54%, an IC50 [1, 6] of 13.2 µM and an IC50 [1, 7] of over 10 µM.
